The test system of data set [1] is female rats during pregnancy. Put plainly: Teratogenic effects in the rat. To be noted: dose of 6 mg/kg/day, subcutaneously, day 8 to 14 of pregnancy. The format is in vivo. The text has this: Teratogenic effects in the rat.
The compounds were administrated subcutaneously to female rats during pregnancy, i.e., day 8 to 14 of pregnancy. The rats were caesarean sectioned and necropsied on day 20 after fertilisation. The foetuses were examined for external and internal abnormalities.

Data set [2] deals with man. To be noted: e.g. a flu-like syndrome; cited from earlier work.
In data set [3] the test system is beagle dogs. Kind of data set: Beagle Pain Syndrome (BPS). The format is in vivo. The following applies: different breeds of beagle dogs. Here is the method: The disease is reflected by clinical and laboratory manifestations justifying BPS as a model for the flu-like syndrome induced by roquinimex in man.
Beagle Pain Syndrome (BPS).
The compounds were administrated intravenously to beagle dogs. The dosage was given for five consecutive days. The dogs were evaluated for clinical and laboratory signs of the pain syndrome, e.g., fever, increased erythrocyte sedimentation rate (ESR), alkaline phosphate (AP), induction of acute phase proteins and vasculitis

The subject of data set [4] is acute experimental autoimmune encephalomyelitis (aEAE). Kind of data set: Acute experimental autoimmune encephalomyelitis (aEAE) inhibition. It counts as in vivo. The following applies: at ≥5 mg/kg, mice, treatment control.
Data set [5] concerns female rats during pregnancy. To be noted: no dose given, background statement; cited from earlier work.

For the molecule `CCN(C(=O)c1c(O)c2c(SC)cccc2n(C)c1=O)c1ccccc1` [Compound A, N-ethyl-N-phenyl-1,2-dihydro-4-hydroxy-5-methylthio-1-methyl-2-oxo-quinoline-3-carboxamide], the “Teratogenic effects in the rat” value in data set [1] is recorded as “non-teratogenic”. On to `CSc1cccc2c1c(O)c(C(=O)N(C)c1ccccc1)c(=O)n2C` [N-methyl-N-phenyl-1,2-dihydro-4-hydroxy-5-methylthio-1-methyl-2-oxo-quinoline-3-carboxamide], for which, in data set [1], the “Teratogenic effects in the rat” value is reported as “teratogenic”.

On to `CN(C(=O)c1c(O)c2ccccc2n(C)c1=O)c1ccccc1` [Roquinimex, roquinimex], for which the “side effects in man” value in data set [2] was “induces dose-limiting side effects”. Also, the “induction of the Beagle Pain Syndrome (BPS)” value in data set [3] is listed as “induce the Beagle Pain Syndrome (BPS)”. Further, the “inhibition of acute experimental autoimmune encephalomyelitis (aEAE)” value in data set [4] was “more than 50%”. Also, the “teratogenic in the rat” value in data set [5] is on record as “teratogenic”. On to `CSc1cccc2c1c(O)c(C(=O)N(C)c1ccc(F)cc1F)c(=O)n2C` [Compound B, N-methyl-N-(2,4-difluoro-phenyl)-1,2-dihydro-4-hydroxy-5-methylthio-1-methyl-2-oxo-quinoline-3-carboxamide], for which the “Teratogenic effects in the rat” value in data set [1] is recorded as “non-teratogenic”.

The values are drawn from patent publication EP1097139B1, “QUINOLINE DERIVATIVES” (Active Biotech AB, priority 1998, dated 2000).
